Measurements as given in the NIST ThermoML archive (doi:10.1021/je400659p).
Numbers after ± are expanded uncertainties.

Assays:
[1] = xn = mol fraction of the nth substance listed; details: 101 kPa, Liquid, Vibrating tube method
[2] = refractive index (Na D-line) (dimensionless); xn = mol fraction of the nth substance listed; details: 101 kPa, Liquid, Standard Abbe refractometry

CCn1cc[n+](C)c1.F[B-](F)(F)F [1-ethyl-3-methylimidazolium tetrafluoroborate] + OCCO
Details	mass density, [1] [kg/m3]	refractive index, [2]
293.15 K, x1 = 0.1249	1161.63 ± 0.26	–
293.15 K, x1 = 0.2084	1184.1 ± 0.3	–
293.15 K, x1 = 0.3046	1205.75 ± 0.38	–
293.15 K, x1 = 0.4124	1224.93 ± 0.5	–
293.15 K, x1 = 0.4763	1234.72 ± 0.57	–
293.15 K, x1 = 0.5565	1245.69 ± 0.68	–
293.15 K, x1 = 0.717	1264.34 ± 0.93	–
293.15 K, x1 = 0.7826	1271.14 ± 1	–
293.15 K, x1 = 0.901	1282.2 ± 1.3	–
293.15 K, x1 = 1	1290.63 ± 1.5	–
298.15 K, x1 = 0.1249	1157.85 ± 0.26	1.4239 ± 0.0004
298.15 K, x1 = 0.2084	1180.23 ± 0.3	1.4206 ± 0.0004
298.15 K, x1 = 0.3046	1201.79 ± 0.38	1.4176 ± 0.0004
298.15 K, x1 = 0.4124	1220.94 ± 0.49	1.4151 ± 0.0004
298.15 K, x1 = 0.4763	1230.74 ± 0.57	1.414 ± 0.0004
298.15 K, x1 = 0.5565	1241.72 ± 0.67	1.413 ± 0.0004
298.15 K, x1 = 0.717	1260.43 ± 0.92	1.412 ± 0.0005
298.15 K, x1 = 0.7826	1267.25 ± 1	1.4118 ± 0.0005
298.15 K, x1 = 0.901	1278.35 ± 1.3	1.4115 ± 0.0005
298.15 K, x1 = 1	1286.82 ± 1.5	1.4111 ± 0.0005
303.15 K, x1 = 0.1249	1154.08 ± 0.26	1.4224 ± 0.0004
303.15 K, x1 = 0.2084	1176.36 ± 0.3	1.4192 ± 0.0004
303.15 K, x1 = 0.3046	1197.84 ± 0.38	1.4163 ± 0.0004
303.15 K, x1 = 0.4124	1216.96 ± 0.49	1.4138 ± 0.0004
303.15 K, x1 = 0.4763	1226.77 ± 0.56	1.4127 ± 0.0004
303.15 K, x1 = 0.5565	1237.77 ± 0.67	1.4117 ± 0.0004
303.15 K, x1 = 0.717	1256.53 ± 0.92	1.4105 ± 0.0005
303.15 K, x1 = 0.7826	1263.37 ± 1	1.4103 ± 0.0005
303.15 K, x1 = 0.901	1274.51 ± 1.3	1.4101 ± 0.0005
303.15 K, x1 = 1	1283.02 ± 1.5	1.41 ± 0.0005
313.15 K, x1 = 0.1249	1146.54 ± 0.26	1.4199 ± 0.0004
313.15 K, x1 = 0.2084	1168.63 ± 0.29	1.4167 ± 0.0004
313.15 K, x1 = 0.3046	1189.98 ± 0.37	1.4136 ± 0.0004
313.15 K, x1 = 0.4124	1209.07 ± 0.48	1.411 ± 0.0004
313.15 K, x1 = 0.4763	1218.9 ± 0.55	1.4099 ± 0.0004
313.15 K, x1 = 0.5565	1229.92 ± 0.66	1.4089 ± 0.0004
313.15 K, x1 = 0.717	1248.81 ± 0.9	1.4079 ± 0.0005
313.15 K, x1 = 0.7826	1255.69 ± 1	1.4077 ± 0.0005
313.15 K, x1 = 0.901	1266.9 ± 1.2	1.4076 ± 0.0005
313.15 K, x1 = 1	1275.45 ± 1.4	1.4073 ± 0.0005
323.15 K, x1 = 0.1249	1138.98 ± 0.25	1.4174 ± 0.0004
323.15 K, x1 = 0.2084	1160.91 ± 0.29	1.4142 ± 0.0004
323.15 K, x1 = 0.3046	1182.17 ± 0.36	1.4111 ± 0.0004
323.15 K, x1 = 0.4124	1201.24 ± 0.47	1.4085 ± 0.0004
323.15 K, x1 = 0.4763	1211.09 ± 0.55	1.4074 ± 0.0004
323.15 K, x1 = 0.5565	1222.17 ± 0.65	1.4064 ± 0.0004
323.15 K, x1 = 0.717	1241.18 ± 0.89	1.4054 ± 0.0005
323.15 K, x1 = 0.7826	1248.09 ± 1	1.4054 ± 0.0005
323.15 K, x1 = 0.901	1259.36 ± 1.2	1.4053 ± 0.0005
323.15 K, x1 = 1	1267.97 ± 1.4	1.4051 ± 0.0005
333.15 K, x1 = 0.1249	1131.39 ± 0.25	–
333.15 K, x1 = 0.2084	1153.19 ± 0.28	–
333.15 K, x1 = 0.3046	1174.39 ± 0.36	–
333.15 K, x1 = 0.4124	1193.47 ± 0.46	–
333.15 K, x1 = 0.4763	1203.36 ± 0.54	–
333.15 K, x1 = 0.5565	1214.49 ± 0.64	–
333.15 K, x1 = 0.717	1233.6 ± 0.88	–
333.15 K, x1 = 0.7826	1240.56 ± 0.99	–
333.15 K, x1 = 0.901	1251.89 ± 1.2	–
333.15 K, x1 = 1	1260.55 ± 1.4	–
343.15 K, x1 = 0.1249	1123.78 ± 0.25	–
343.15 K, x1 = 0.2084	1145.48 ± 0.28	–
343.15 K, x1 = 0.3046	1166.65 ± 0.35	–
343.15 K, x1 = 0.4124	1185.76 ± 0.46	–
343.15 K, x1 = 0.4763	1195.68 ± 0.53	–
343.15 K, x1 = 0.5565	1206.88 ± 0.63	–
343.15 K, x1 = 0.717	1226.11 ± 0.87	–
343.15 K, x1 = 0.7826	1233.11 ± 0.98	–
343.15 K, x1 = 0.901	1244.49 ± 1.2	–
343.15 K, x1 = 1	1253.18 ± 1.4	–
353.15 K, x1 = 0.1249	1116.15 ± 0.24	–
353.15 K, x1 = 0.2084	1137.77 ± 0.27	–
353.15 K, x1 = 0.3046	1158.94 ± 0.35	–
353.15 K, x1 = 0.4124	1178.1 ± 0.45	–
353.15 K, x1 = 0.4763	1188.07 ± 0.52	–
353.15 K, x1 = 0.5565	1199.33 ± 0.62	–
353.15 K, x1 = 0.717	1218.68 ± 0.86	–
353.15 K, x1 = 0.7826	1225.73 ± 0.96	–
353.15 K, x1 = 0.901	1237.16 ± 1.2	–
353.15 K, x1 = 1	1245.87 ± 1.4	–
